Patent publication US6372297B1, “Wood preservative oxathiazines” (Uniroyal Chemical Company, Inc., priority 1993, dated 2002)

Columns and labels:
[1] = tested on: mixed spore suspension: Aureobasidium pullulans, Aspergillus amstelodami, Ceratocystis pilifera, Cladosporium sp., Penicillium sp., Sclerophomas entoxylina …; assay: Control of molds and sapstain fungi in mini-board test; set-up: key to Surface score of treated mini-boards, 3 week incubation, 1500 ppm / Surface score of treated mini-boards, 3 week incubation, 2500 ppm: 0: Free of fungal growth; 1: Traces of fungal growth; 2: Little fungal growth; 3: Moderate fungal growth; 4: Vigorous to maximum growth (all surfaces covered with fungal growth)
Source text: Representative compounds of this invention to be tested, were suspended in an aqueous solution containing 7.5% GENAPOL X 080™ (Hoechst-Celanese Corporation), and 20% propylene glycol monomethyl ether, to prepare the test solutions. […]
Deep frozen boards (300×50×10 mm) of freshly felled sapwood of Pinus sylvestrus (mini-boards) were thawed at room temperature. One half of each mini-board was immersed in a test solution for 20 seconds. The mini-boards were then sprayed with mixed spore suspension containing the following fungi:
Sclerophomas entoxylina, and
and stored in incubation boxes at 25° C. and at 100% relative humidity, for three weeks. For each compound tested, each concentration of test solution was applied to five different mini-boards.
The efficacy of the test compounds was determined by comparing the fungal growth on both the treated and untreated parts of the mini-boards.
The degree of infection was scored according to the following scale:
1=Traces of fungal growth
4=Vigorous to maximum growth (all surfaces covered with fungal growth)

[2] = tested on: blue-stain fungi and molds; assay: Activity against blue-stain fungi and molds on a stick test on vermiculite (paint film); set-up: key to Surface score of wooden sticks treated with paint formulation, C. cladosporioides / Surface score of wooden sticks treated with paint formulation, P. purpurogenum / Surface score of wooden sticks treated with paint formulation, P. violacea / Surface score of wooden sticks treated with paint formulation, R rubra (y) / Surface score of wooden sticks treated with paint formulation, S. chartarum / Surface score of wooden sticks treated with paint formulation, A. versicolor / Surface score of wooden sticks treated with paint formulation, A. pullulans: 0: No growth; Trace of growth of up to 1% coverage of the test inoculated area; 2: Growth covering between 1 and 10% of the inoculated test area; Growth covering between 10 and 30% of the inoculated test area; 4: Growth covering between 30 and 70% of the inoculated test area; 5: Growth covering more than 70t of the inoculated test area; conditions: 12 weeks on vermiculite; for Surface score of wooden sticks treated with paint formulation, R rubra (y): R rubra (yeast)
Description: Beech sticks (73×18×2 mm) Fagus sylvatica were painted, allowed to dry, and sterilized by γ-radiation (1.2 mRad). […] The coated sticks prepared above were then dipped in a spore suspension of pure culture of each fungus. Seven sticks each were placed in autoclaved Petri dishes (200 mm in diameter, 30 mm in height) containing 300 ml of vermiculite and 120 ml of water, and incubated for 12 weeks. The surfaces of the sticks were then examined for the growth of fungus and were evaluated according to the following scoring system: 0: No growth 1: […] 2: […] 3: […] 4. […] 5. Growth covering more than 70t of the inoculated test area.

[3] = tested on: mixed spore suspension of blue-stain fungus and molds; assay: Activity against blue-stain fungi and molds in a mold cabinet test (BS3900: Part G6)
Description: Using the methods described in BS3900: Part G6: 1989, British Standard Methods of test for paints, “Assessment of resistance to fungal growth”, representative compounds of this invention were tested for activity against blue-stain fungus and molds in a mold cabinet test. In brief, sticks of Scots pine (Pinus sylvestris) measuring 75×100×10 mm, were painted, allowed to dry, and sterilized by […] (1.2 mRad). […] The sticks were then with each solution. The inoculation consisted of dipping the sticks in a mixed spore suspension, then placing them in a mold chamber and incubating them for 12 weeks. The surfaces were evaluated according the following score system: 0: No growth 1: […] 2: […] 3: […] 4. […] 5. Growth covering more than 70% of the inoculated test area.

[4] = tested on: molds and blue-stain fungi; assay: In vitro activity against molds and blue-stain fungi, poison plate assay (MIC); format: cell-based; conditions: malt extract agar, complete inhibition
Description: The effect of the representative compounds on the growth of certain molds and blue-strain fungi were determined using a poison plate assay according to the following procedure: The solutions of the representative compounds prepared above were further diluted with sterile water to desired concentrations and poured into Petri dishes. Malt extract agar medium was then added aseptically to the Petri dishes and to Petri dishes containing no compound (controls). The Petri dishes were then shaken to provide a uniform distribution of the agar medium. Each Petri dish containing compound and each control Petri dish, was then inoculated with a fungus and incubated for a period of time sufficient to permit complete growth of the fungus in the respective control Petri dish. The Petri dishes containing compound were then examined to determine the amount of inhibition of fungi for each concentration of compound tested.

[5] = tested on: blue-stain fungi and molds; assay: Activity against blue-stain fungi and molds in a stick test (threshold concentrations); conditions: beech sticks, 22° C., 90% relative humidity
Description: Representative compounds of this invention were dissolved in 50% ethanol. Each compound was then diluted serially using 50% ethanol. […] After three (3) hours, the solutions containing the test compounds were poured off and the treated sticks were allowed to dry in a sterile laminar air flow. Each treated stick was then placed in a Petri dish which had been previously seeded with inoculum. Two drops of a test fungal or spore suspension were pipetted onto the upper surface of each treated stick. The Petri dishes containing the treated sticks were incubated at 22° C. and 90% relative humidity. The treated sticks were evaluated after there was sufficient growth of fungus on control sticks (i.e., untreated sticks) incubated in the same manner. The following score system was used: 0: Stick free of fungal/mold growth 1: Traces of fungal growth on the stick 2: Slight growth (5 to 25% of the surface covered with fungal growth) 3: Moderate growth (25 to 50% covered with fungal growth) 4. Vigorous to maximum fungal growth (more than 50% growth) […]

## [O-][S+]1CCON=C1c1ccsc1 (stereo not drawn) [Compound 79]
[1]
  Surface score of treated mini-boards, 3 week incubation, 1500 ppm: 1.0
  Surface score of treated mini-boards, 6 week incubation, 1500 ppm: 3.0
  Surface score of treated mini-boards, 3 week incubation, 2500 ppm: 0
  Surface score of treated mini-boards, 6 week incubation, 2500 ppm: 1.8

## Cc1ccc(C2=NOCC[S+]2[O-])s1 (stereo not drawn) [Compound 48]
[1]
  Surface score of treated mini-boards, 3 week incubation, 1500 ppm: 0
  Surface score of treated mini-boards, 6 week incubation, 1500 ppm: 1.4
  Surface score of treated mini-boards, 3 week incubation, 2500 ppm: 0
  Surface score of treated mini-boards, 6 week incubation, 2500 ppm: 0.8

## O=S1(=O)CCON=C1c1ccc(Br)s1 [Compound 38]
[2]; 0.15% a.i. in paint
  Surface score of wooden sticks treated with paint formulation, A. pullulans: 2 (Growth covering between 1 and 10% of the inoculated test area)
  Surface score of wooden sticks treated with paint formulation, A. versicolor: 1 (Trace of growth of up to 1% coverage of the test inoculated area)
  Surface score of wooden sticks treated with paint formulation, C. cladosporioides: 2 (Growth covering between 1 and 10% of the inoculated test area)
  Surface score of wooden sticks treated with paint formulation, P. purpurogenum: 3 (Growth covering between 10 and 30% of the inoculated test area)
  Surface score of wooden sticks treated with paint formulation, P. violacea: 4 (Growth covering between 30 and 70% of the inoculated test area)
  Surface score of wooden sticks treated with paint formulation, R rubra (y): 3 (Growth covering between 10 and 30% of the inoculated test area)
  Surface score of wooden sticks treated with paint formulation, S. chartarum: 5 (Growth covering more than 70t of the inoculated test area)
  Surface score of wooden sticks treated with paint formulation, U. atrum: 4 (Growth covering between 30 and 70% of the inoculated test area)
[2]; 0.3% a.i. in paint
  Surface score of wooden sticks treated with paint formulation, A. pullulans: 0
  Surface score of wooden sticks treated with paint formulation, A. versicolor: 0
  Surface score of wooden sticks treated with paint formulation, C. cladosporioides: 0
  Surface score of wooden sticks treated with paint formulation, P. purpurogenum: 3 (Growth covering between 10 and 30% of the inoculated test area)
  Surface score of wooden sticks treated with paint formulation, P. violacea: 4 (Growth covering between 30 and 70% of the inoculated test area)
  Surface score of wooden sticks treated with paint formulation, R rubra (y): 0
  Surface score of wooden sticks treated with paint formulation, S. chartarum: 2 (Growth covering between 1 and 10% of the inoculated test area)
  Surface score of wooden sticks treated with paint formulation, U. atrum: 3 (Growth covering between 10 and 30% of the inoculated test area)
[3]; 0.15% in water-based paint
  Surface score in a paint formulation in a mold cabinet test, 6 weeks: 2.5
  Surface score in a paint formulation in a mold cabinet test, 12 weeks: 4.5
[3]; 0.3% in water-based paint
  Surface score in a paint formulation in a mold cabinet test, 6 weeks: 2.5
  Surface score in a paint formulation in a mold cabinet test, 12 weeks: 4.0
[1]
  Surface score of treated mini-boards, 3 week incubation, 1500 ppm: 0.6
  Surface score of treated mini-boards, 6 week incubation, 1500 ppm: 2.0
  Surface score of treated mini-boards, 3 week incubation, 2500 ppm: 0.4
  Surface score of treated mini-boards, 6 week incubation, 2500 ppm: 2.8

## Cc1ccc(C2=NOCCS2(=O)=O)s1 [Compound 49]
[1]
  Surface score of treated mini-boards, 3 week incubation, 1500 ppm: 0
  Surface score of treated mini-boards, 6 week incubation, 1500 ppm: 1.8
  Surface score of treated mini-boards, 3 week incubation, 2500 ppm: 0
  Surface score of treated mini-boards, 6 week incubation, 2500 ppm: 1.2

## O=S1(=O)CCON=C1c1ccsc1 [Compound 78]
[1]
  Surface score of treated mini-boards, 3 week incubation, 1500 ppm: 0.2
  Surface score of treated mini-boards, 6 week incubation, 1500 ppm: 1.2
  Surface score of treated mini-boards, 3 week incubation, 2500 ppm: 0.2
  Surface score of treated mini-boards, 6 week incubation, 2500 ppm: 1.8

## N#Cc1ccc(C2=NOCCS2(=O)=O)s1 [Compound 58]
[4]; A. amstelodami
  MIC (ppm) against A. amstelodami: 5 ppm
[4]; A. niger
  MIC (ppm) against A. niger: 5 ppm
[4]; A. pullulans
  MIC (ppm) against A. pullulans: 25 ppm
[4]; A. versicolor
  MIC (ppm) against A. versicolor: 5 ppm
[4]; C. cladosporioides
  MIC (ppm) against C. cladosporioides: 10 ppm
[4]; C. pilifera
  MIC (ppm) against C. pilifera: 5 ppm
[4]; F. solani
  MIC (ppm) against F. solani: 10 ppm
[4]; G. candidum
  MIC (ppm) against G. candidum: 25 ppm
[4]; P. purpurogenum
  MIC (ppm) against P. purpurogenum: 10 ppm
[4]; P. variotii
  MIC (ppm) against P. variotii: 25 ppm
[4]; P. violacea
  MIC (ppm) against P. violacea: 25 ppm
[4]; S. atra
  MIC (ppm) against S. atra: 5 ppm
[4]; S. entoxylina
  MIC (ppm) against S. entoxylina: 5 ppm
[4]; T. viride
  MIC (ppm) against T. viride: 25 ppm
[4]; U. atrum
  MIC (ppm) against U. atrum: 10 ppm
[5]; A. niger, minimum concentration to obtain score 0
  Threshold concentration (ppm), A. niger, score 0: 500 ppm
[5]; A. niger, minimum concentration to obtain score 1-2
  Threshold concentration (ppm), A. niger, score 1-2: <250 ppm
[5]; Aureobasidium, minimum concentration to obtain score 0
  Threshold concentration (ppm), Aureobasidium, score 0: >1000 ppm
[5]; Aureobasidium, minimum concentration to obtain score 1-2
  Threshold concentration (ppm), Aureobasidium, score 1-2: 500-1000 ppm
[5]; Sclerophoma, minimum concentration to obtain score 0
  Threshold concentration (ppm), Sclerophoma, score 0: 100 ppm
[5]; Sclerophoma, minimum concentration to obtain score 1-2
  Threshold concentration (ppm), Sclerophoma, score 1-2: <50 ppm
[5]; Trichoderma, minimum concentration to obtain score 0
  Threshold concentration (ppm), Trichoderma, score 0: 5000 ppm
[5]; Trichoderma, minimum concentration to obtain score 1-2
  Threshold concentration (ppm), Trichoderma, score 1-2: 1000-2500 ppm
